Results as given in ChEMBL document CHEMBL2401704, “Inhibition of rhodesain as a novel therapeutic modality for human African trypanosomiasis” (J Med Chem, 2013).
Residues, ends and D or L forms follow the SMILES beside them. *: point of attachment. Cbz = O=C(OCc1ccccc1)*; CHN2 = [N-]=[N+]=C*

Legend:
L6 = assay: Cytotoxicity against rat L6 cells; assay type: cell-based
Plasmodium falciparum = assay: Antiprotozoal activity against Plasmodium falciparum; assay type: functional, organism-based
[1] = Inhibition of Plasmodium falciparum Falcipain 2
[2] = system: Trypanosoma brucei rhodesiense; assay: Antitrypanosomal activity against Trypanosoma brucei rhodesiense; assay type: functional, organism-based
Rhodesain = Rhodesain (Trypanosoma brucei rhodesiense, UniProt Q95PM0); assay: Inhibition of Trypanosoma brucei rhodesiense rhodesain
[3] = Inhibition of Trypanosoma brucei recombinant rhodesain
Trypanosoma brucei [4] = assay: Antitrypanosomal activity against Trypanosoma brucei; assay type: functional, organism-based
[5] = Inhibition of Trypanosoma brucei rhodesain
[6] = system: Trypanosoma brucei brucei; assay: Antitrypanosomal activity against Trypanosoma brucei brucei; assay type: functional, organism-based
[7] = system: Trypanosoma brucei brucei; assay: Antitrypanosomal activity against procyclic form of Trypanosoma brucei brucei; assay type: functional; conditions: read-out: ED50 (the source's name)
[8] = system: Trypanosoma brucei brucei; assay: Antitrypanosomal activity against blood stream form of Trypanosoma brucei brucei; assay type: functional, organism-based; conditions: for EC50: read-out: ED50 (the source's name)
Trypanosoma brucei [9] = assay: Inhibition of Trypanosoma brucei rhodesain assessed as second order rate constant
Cruzipain = Cruzipain (Trypanosoma cruzi, UniProt P25779); assay: Inhibition of Trypanosoma cruzi cruzain
Sequence of Cruzipain (P25779 whole entry): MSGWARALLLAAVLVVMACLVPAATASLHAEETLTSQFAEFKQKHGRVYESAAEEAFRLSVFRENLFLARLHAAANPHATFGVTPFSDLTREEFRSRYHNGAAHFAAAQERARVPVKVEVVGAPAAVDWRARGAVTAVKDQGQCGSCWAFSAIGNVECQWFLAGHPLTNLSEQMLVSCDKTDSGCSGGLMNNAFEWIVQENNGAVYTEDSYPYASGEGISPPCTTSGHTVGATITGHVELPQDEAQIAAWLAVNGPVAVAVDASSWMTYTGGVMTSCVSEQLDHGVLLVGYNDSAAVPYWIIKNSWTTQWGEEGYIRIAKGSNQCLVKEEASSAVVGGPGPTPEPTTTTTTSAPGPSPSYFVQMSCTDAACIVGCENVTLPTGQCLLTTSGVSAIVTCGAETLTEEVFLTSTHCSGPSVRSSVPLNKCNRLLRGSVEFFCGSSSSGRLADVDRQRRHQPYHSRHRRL

Sequence of Rhodesain (Q95PM0 whole entry): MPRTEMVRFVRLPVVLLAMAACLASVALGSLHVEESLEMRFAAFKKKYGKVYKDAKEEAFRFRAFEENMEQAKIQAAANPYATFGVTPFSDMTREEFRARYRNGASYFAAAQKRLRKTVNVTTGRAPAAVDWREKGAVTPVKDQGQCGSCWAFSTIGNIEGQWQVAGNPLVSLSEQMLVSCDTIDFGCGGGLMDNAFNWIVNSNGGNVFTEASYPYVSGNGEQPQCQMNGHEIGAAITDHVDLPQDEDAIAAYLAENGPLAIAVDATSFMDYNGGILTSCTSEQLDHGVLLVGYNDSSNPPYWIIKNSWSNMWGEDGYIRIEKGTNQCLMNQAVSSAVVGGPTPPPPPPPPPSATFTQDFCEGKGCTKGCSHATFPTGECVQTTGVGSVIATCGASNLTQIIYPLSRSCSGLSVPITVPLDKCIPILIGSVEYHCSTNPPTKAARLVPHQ

Compound: CCCC1CCC(N(Cc2ccc3c(c2)OCO3)c2nc(C#N)nc(N3CCOCC3)n2)CC1 (configuration not stated)
- IC50 (L6): 5900 nM
- IC50 (Plasmodium falciparum): 2400 nM
- Ki [1]: 1030 nM
- IC50 [2]: 31200 nM
- Ki (Rhodesain): 2 nM

Compound: CC(C)[C@H](NC(=O)c1ccc2c(c1)OCCO2)C(=O)N(C)N(C)C#N
- IC50 [3]: 5.4 nM

Compound: CCN(c1nc(C#N)nc(N2CCOCC2)n1)C1CCCCC1
- IC50 (L6): 45500 nM
- IC50 (Plasmodium falciparum): > 5000 nM
- Ki [1]: 80 nM
- IC50 [2]: 44100 nM
- Ki (Rhodesain): 100 nM

Compound: C/C(=N\N=C(/S)N1CCN(C)CC1)c1cccc(Br)c1
- IC50 (Trypanosoma brucei [4]): 2000 nM
- IC50 [5]: 4000 nM

Compound: CN(C(=O)[C@H](Cc1ccccc1)NC(=O)OCc1ccccc1)N(C#N)CCc1ccccc1
- IC50 [3]: 0.81 nM

Compound: CC(C)(C)OC(=O)NCc1cccc(NC(=O)c2ccc(C(=O)NC(=N)NC(=O)OCc3ccccc3)[nH]2)c1
- IC50 [6]: 220 nM
- Ki [1]: 620 nM
- Ki [5]: 110 nM

Compound: CC(C)[C@H](NC(=O)c1ccc2c(c1)OCCO2)C(=O)N(C)N(C#N)Cc1ccccc1
- IC50 [3]: 15.8 nM

Compound: CN(C(=O)[C@H](Cc1ccccc1)NC(=O)c1ccc2c(c1)OCCO2)N(C#N)CCCc1ccccc1
- IC50 [3]: 0.24 nM

Compound: N#Cc1nc(N2CCOCC2)nc(N(Cc2cccc(C(F)(F)F)c2)C2C3CC4CC(C3)CC2C4)n1 (configuration not stated)
- IC50 (L6): 23200 nM
- IC50 (Plasmodium falciparum): 1100 nM
- Ki [1]: 12900 nM
- IC50 [2]: 27500 nM

Compound: CC(C)C[C@H](NC(=O)c1ccc2c(c1)OCCO2)C(=O)N(C)N(C#N)CCCc1ccccc1
- IC50 [3]: 0.14 nM

Compound: CN(C(=O)[C@H](Cc1ccccc1)NC(=O)OCc1ccccc1)N(C#N)Cc1ccccc1
- EC50 [7]: 400 nM
- IC50 [3]: 0.19 nM
- EC50 [8]: 1100 nM

Compound: O=C(N[C@@H](Cc1ccccc1)C(=O)N[C@H](/C=C/S(=O)(=O)CCc1ccccc1)CCc1ccccc1)OCc1ccccc1
- K (Trypanosoma brucei [9]): 1.09 ×10⁷ /M/min

Compound: CCCCCN(C#N)N(C)C(=O)[C@H](CC(C)C)NC(=O)c1ccc2c(c1)OCCO2
- IC50 [3]: 0.33 nM

Compound: CN(C#N)N(C)C(=O)[C@H](Cc1ccccc1)NC(=O)OCc1ccccc1
- IC50 [3]: 0.4 nM

Compound: CC(C)[C@H](NC(=O)c1ccc2c(c1)OCCO2)C(=O)N(C)N(C#N)CCc1ccccc1
- IC50 [3]: 35.1 nM

Compound: C/C(=N\N=C(\N)S)c1cccc(Nc2ccccc2)c1
- IC50 (Trypanosoma brucei [4]): 8000 nM
- IC50 [5]: 800 nM

Compound: O=C(NC(=S)Nc1ccc(O)cc1)c1sc2ccccc2c1Cl
- IC50 [5]: < 10000 nM
- IC50 (Cruzipain): < 10000 nM

Compound: O=C(N[C@@H](Cc1ccccc1)C(=O)N[C@H](/C=C/S(=O)(=O)Cc1ccccc1)CCc1ccccc1)OCc1ccccc1
- K (Trypanosoma brucei [9]): 5.35 ×10⁷ /M/min

Compound: C/C(=N\N=C(\N)S)c1ccc(Oc2ccccc2)cc1
- IC50 (Trypanosoma brucei [4]): 3000 nM
- IC50 [5]: 8000 nM

Compound: C[C@H](NC(=O)[C@H](Cc1ccccc1)NC(=O)OCc1ccccc1)C(=O)CF
- IC50 [8]: 31000 nM

Compound: CC(C)C[C@H](NC(=O)c1ccc2c(c1)OCCO2)C(=O)N(C)N(C)C#N
- IC50 [3]: 0.06 nM

Compound: C[C@H](NC(=O)[C@H](Cc1ccccc1)NC(=O)OCc1ccccc1)C(=O)C=[N+]=[N-]
- IC50 [8]: 6100 nM

Compound: CSc1cccc(NC(=O)Nc2sc3ccccc3c2Cl)c1
- IC50 [5]: < 10000 nM
- IC50 (Cruzipain): < 10000 nM

Compound: C/C(=N\N=C(\N)S)c1cccc(-c2ccccc2)c1
- IC50 (Trypanosoma brucei [4]): 12000 nM
- IC50 [5]: 1100 nM

Compound: O=C1C(=O)N(C(=O)OCc2ccccc2)c2ccccc21
- IC50 [5]: 30000 nM

Compound: [N-]=[N+]=CC(=O)[C@H](Cc1ccccc1)NC(=O)[C@H](Cc1ccccc1)NC(=O)OCc1ccccc1 (Cbz-Phe-Phe-CHN2)
- IC50 [8]: 4800 nM

Compound: CC(C)(C)OC(=O)Nc1cccc(CNC(=O)c2ccc(C(=O)NC(=N)NC(=O)OCc3ccccc3)o2)c1
- IC50 [6]: 3210 nM
- Ki [1]: 3930 nM
- Ki [5]: 5290 nM

Compound: NC(=S)/N=N/c1c(O)[nH]c2ccc(I)cc12
- IC50 [5]: 1000 nM

Compound: N=C(NC(=O)OCc1ccccc1)NC(=O)c1ccc(C(=O)NCc2cccc(NC(=O)OCc3ccccc3)c2)o1
- IC50 [6]: 8310 nM
- Ki [1]: 1150 nM
- Ki [5]: 50 nM

Compound: CC(C)C[C@H](NC(=O)c1ccc2c(c1)OCCO2)C(=O)N(C)N(C#N)CCc1ccccc1
- IC50 [3]: 0.71 nM

Compound: O=C(N[C@@H](Cc1ccccc1)C(=O)N[C@H](/C=C/S(=O)(=O)Nc1ccccc1)CCc1ccccc1)OCc1ccccc1
- K (Trypanosoma brucei [9]): 2.24 ×10⁶ /M/min

Compound: CN(C(=O)[C@H](Cc1ccccc1)NC(=O)c1ccc2c(c1)OCCO2)N(C#N)Cc1ccccc1
- IC50 [3]: 0.51 nM

Compound: CN(C(=O)[C@H](Cc1ccccc1)NC(=O)OCc1ccccc1)N(C#N)CCCc1ccccc1
- EC50 [7]: 700 nM
- IC50 [3]: 2 nM
- EC50 [8]: 1200 nM

Compound: O=C(N[C@@H](Cc1ccccc1)C(=O)N[C@H](/C=C/S(=O)(=O)Oc1ccccc1)CCc1ccccc1)OCc1ccccc1
- K (Trypanosoma brucei [9]): 3.48 ×10⁸ /M/min

Compound: N#Cc1nc(N2CCOCC2)nc(N(c2ccccc2)c2ccccc2)n1
- IC50 (L6): 22000 nM
- IC50 (Plasmodium falciparum): > 5000 nM
- Ki [1]: 42 nM
- IC50 [2]: 18900 nM
- Ki (Rhodesain): 36 nM

Compound: O=C1C(=O)N(S(=O)(=O)c2ccccc2)c2ccccc21
- IC50 [5]: 15000 nM
